SMILES strings stand for the structures.

The term IC50 denotes the concentration that gives 50% inhibition.

The subject of one assay is NCI-H460. Briefly: Cytotoxicity against human NCI-H460 cells after 24 hrs by MTT assay. It counts as functional, cell-based. The note with it: NCI-H460, 24 h. In general terms: Tetrazolium dyes change colour on reduction, which living cells bring about.
A further assay relates to SF-268. Put plainly: Cytotoxicity against human SF-268 cells after 24 hrs by MTT assay. The assay is classed as functional, cell-based. Particulars: SF-268, 24 h.
For another assay, the system named is MIA PaCa-2. Put plainly: Cytotoxicity against human MIA PaCa2 cells after 24 hrs by MTT assay. The assay is classed as functional, cell-based. Particulars: MIA PaCa-2, 24 h.
The subject of another assay is MCF7. Put plainly: Cytotoxicity against human MCF7 cells after 24 hrs by MTT assay. The assay is classed as functional, cell-based. Particulars: MCF7, 24 h.
Assay [1] in a line: Cytotoxicity against human WI38 cells after 24 hrs by MTT assay. The assay is classed as cell-based. Particulars: WI-38, 24 h.

For the molecule `C=C1C(=O)O[C@H]2[C@@H](OC(C)=O)[C@@H]1[C@H](OC(=O)C(C)(O)CC)[C@H](C(=C)C=O)[C@@]2(C)[C@@H]1CO1` (relative stereo) [ZINAGRANDINOLIDE A], the IC50 in the assay with NCI-H460 was determined as 0.45 µM; with SF-268, 0.29 µM; in the assay with MIA PaCa-2, 0.22 µM; with MCF7, 0.51 µM; in assay [1], 0.69 µM.

For `C=C1C(=O)O[C@H]2[C@@H](OC(C)=O)[C@@H]1[C@H](OC(=O)C(C)(C)O)[C@H](C(=C)C=O)[C@@]2(C)[C@@H]1CO1` (relative stereo), the IC50 with NCI-H460 came out at 0.97 µM; in the assay with SF-268, 0.64 µM; in the assay with MIA PaCa-2, 0.44 µM; in the assay on MCF7, 0.52 µM; in assay [1], 0.76 µM.

As to `C=C[C@@]1(C)[C@H]2OC(=O)C(=C)[C@H]([C@@H]2OC(C)=O)[C@H](OC(=O)C(C)(C)O)[C@@H]1C(=C)C=O` (relative stereo) [ZINAGRANDINOLIDE C], the IC50 amounted to 0.27 µM with NCI-H460; 0.44 µM in the assay on SF-268; 0.32 µM in the assay with MIA PaCa-2; 0.55 µM in the assay on MCF7; 0.64 µM in assay [1].

As to `COc1cccc2c1C(=O)c1c(O)c3c(c(O)c1C2=O)C[C@@](O)(C(=O)CO)C[C@@H]3O[C@H]1C[C@H](N)[C@H](O)[C@H](C)O1` [DOXORUBICIN], the IC50 in the assay on NCI-H460 is 0.01 µM; in assay [1] it was 0.3 µM.

In the case of `C=C[C@@]1(C)[C@H]2OC(=O)C(=C)[C@H]([C@@H]2OC(C)=O)[C@H](OC(=O)C(C)(O)CC)[C@@H]1C(=C)C=O` (relative stereo) [ZINAGRANDINOLIDE B], the IC50 with NCI-H460 was determined as 0.25 µM; in the assay with SF-268 it was 0.3 µM; in the assay with MIA PaCa-2, 0.21 µM; with MCF7, 0.38 µM; in assay [1] it was 0.43 µM.

Values taken from ChEMBL document CHEMBL1158143, “Zinagrandinolides A-C, cytotoxic delta-elemanolide-type sesquiterpene lactones from Zinnia grandiflora” (J Nat Prod, 2006).
